Experiment [1] deals with T1, EphrinB2-EphB1 (Homo sapiens, UniProt P54762).
T1 construct: soluble human EphB1-His, EphB2-His, and EphB4-His ectodomains; commercially available human EphrinB1-Fc (EB1), EphrinB2-Fc (EB2), and EphrinB3-Fc (EB3) ectodomain proteins; purchased
T1 sequence (P54762 18-540 limits assumed): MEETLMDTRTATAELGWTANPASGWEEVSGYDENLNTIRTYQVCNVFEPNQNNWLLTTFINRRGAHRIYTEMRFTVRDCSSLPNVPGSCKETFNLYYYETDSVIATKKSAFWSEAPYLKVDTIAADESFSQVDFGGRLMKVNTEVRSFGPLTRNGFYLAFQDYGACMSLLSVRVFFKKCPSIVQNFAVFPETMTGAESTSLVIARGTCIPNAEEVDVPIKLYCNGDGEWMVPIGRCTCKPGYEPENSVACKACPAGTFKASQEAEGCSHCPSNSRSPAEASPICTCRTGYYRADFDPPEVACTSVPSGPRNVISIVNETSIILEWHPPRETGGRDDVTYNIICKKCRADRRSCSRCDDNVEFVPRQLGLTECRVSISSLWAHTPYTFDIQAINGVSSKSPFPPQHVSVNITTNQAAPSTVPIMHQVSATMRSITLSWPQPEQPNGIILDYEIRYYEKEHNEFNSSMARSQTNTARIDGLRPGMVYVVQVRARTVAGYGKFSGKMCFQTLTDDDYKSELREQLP
Nature of the experiment: Octet 80 sec association/500 sec dissociation, immobilized human EphrinB2-Fc binding to soluble human EphB1-His. The settings on record: for inhibition of EphB1-EphrinB2 binding: association step, general; for EphB1 Inhibition Percent, Inhibition of Association ONLY: at 3.2 μM and 80 seconds; for EphB1 Inhibition Percent, Inhibition of Association ONLY / EphB1 Inhibition Percent, Inhibition of Association-Dissociation: immobilized human EphrinB2, 25 nM soluble human EphB1; for EphB1 Inhibition Percent, Inhibition of Association-Dissociation: at 3.2 μM and 580 seconds. The procedure, abridged:
(§1)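 EphrinB2-Fc captured on AHC biosensors, then soluble His-tagged EphB ectodomain (25 nM for % inhibition runs) associated 80 s and dissociated 500 s in PBS, 0.05% Tween-20, 1% DMSO ± compound. Compounds tested at 0.1–3.2 μM with a 10 μM max standard; IC50 from AUC of full traces or at 75 s and 135 s.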
On the technique in general: In BLI a coated tip is dipped into the sample, and binding shifts an interference pattern.

The target of experiment [2] is T2, EphrinB2-EphB4 (Homo sapiens, UniProt P54760).
T2 construct: soluble human EphB1-His, EphB2-His, and EphB4-His ectodomains; commercially available human EphrinB1-Fc (EB1), EphrinB2-Fc (EB2), and EphrinB3-Fc (EB3) ectodomain proteins; purchased
T2 sequence (P54760 16-539 limits assumed): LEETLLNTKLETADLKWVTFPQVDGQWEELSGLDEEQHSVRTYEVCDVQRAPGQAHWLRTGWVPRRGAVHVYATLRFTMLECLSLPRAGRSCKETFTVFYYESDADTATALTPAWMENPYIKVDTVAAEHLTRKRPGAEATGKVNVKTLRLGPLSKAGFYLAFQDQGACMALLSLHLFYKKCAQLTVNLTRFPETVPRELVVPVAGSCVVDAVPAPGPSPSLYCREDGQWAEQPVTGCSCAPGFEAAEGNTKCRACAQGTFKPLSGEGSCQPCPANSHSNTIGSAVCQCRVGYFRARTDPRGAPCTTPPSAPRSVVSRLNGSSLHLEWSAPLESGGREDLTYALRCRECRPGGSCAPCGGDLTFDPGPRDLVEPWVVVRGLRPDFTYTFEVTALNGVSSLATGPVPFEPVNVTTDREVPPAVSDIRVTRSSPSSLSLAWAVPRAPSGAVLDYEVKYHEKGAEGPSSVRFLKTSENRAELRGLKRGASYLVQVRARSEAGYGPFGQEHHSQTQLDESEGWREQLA
Briefly: Octet 80 sec association/500 sec dissociation, immobilized human EphrinB2-Fc binding to soluble human EphB4-His. As to conditions: for inhibition at 3.2 µM: EphB4, 25 nM EphB4, 3.2 μM compound, A20-I as max control, 0* = less than 0, no inhibition; for EphB4 Inhibition Percent, Inhibition of Association ONLY: at 3.2 μM and 80 seconds. The essentials: as §1

The mark [3] stands for this setting: EphB1, 25 nM EphB1, 3.2 μM compound, A20-I as max control, 0* = less than 0, no inhibition, read-out: % Inhibition: Association + Dissociation (160 sec).
Setting [4] is: EphB1, 25 nM EphB1, 3.2 μM compound, A20-I as max control, 0* = less than 0, no inhibition, read-out: % Inhibition: Association ONLY (80 sec).
Setting [5] is: read-out: % Inhibition: Association + Dissociation (160 sec).
The mark [6] stands for this setting: read-out: % Inhibition: Association ONLY (80 sec).
Setting [7] is: immobilized human EphrinB2, 25 nM soluble human EphB4.

Where “and” joins values, the source holds several entries; their conditions need not be identical. Identical values can stand only once. Entries after “also recorded” stand apart in the source; their conditions may differ. Like-named read-outs stand apart in the source and are kept apart here.

By inhibition is commonly meant the share of the control response that was lost under treatment. As for `Oc1c(Br)cc(CN2CCOCC2)c2cccnc12` [Compound 5, 7-bromo-5-(morpholinomethyl)quinolin-8-ol], the inhibition at 3.2 µM in experiment [1] (setting [3]) came out at 45.2%; in experiment [1] (setting [4]) it was 25.1%; in experiment [2] (setting [5]) it was 23%; in experiment [2] (setting [6]), 0%.
On to `O=[N+]([O-])c1cc(CN2CCOCC2)c2cccnc2c1O` [Compound 9, 5-(morpholinomethyl)-7-nitroquinolin-8-ol], for which the “% Inhibition: Association + Dissociation (160 sec)” value in experiment [1] (EphB1, 25 nM EphB1, 3.2 μM compound, A20-I as max control, 0* = less than 0, no inhibition, listed as A19-NO2 (A)) was 36.9% and 29.8%. In addition, in experiment [1], the “inhibition of EphB1-EphrinB2 binding” value is given as 25%; the “EphB1 Inhibition Percent, Inhibition of Association ONLY” value is 22.5% and 16.1% and 15.7%; the “EphB1 Inhibition Percent, Inhibition of Association-Dissociation” value was 36.9% and 29.8% and 22.8%. For the same compound, the “less % inhibition activity toward EphrinB2-EphB4” value in experiment [2] (3.2 μM) was “approximately 20 fold”. Besides, the “selectivity among EphrinB2-EphB1/B2/B4” value in experiment [2] (3.2 μM, listed as A19-NO2) was “selectively inhibit EphrinB2-EphB2 and EphrinB2-EphB1 interactions, while sparing most of the EphrinB2-EphB4 interaction; also recorded: less action towards EphB4 but high specificity for EphB1 and EphB2”. The “inhibition of EphB4-EphrinB2 binding” value in experiment [2] (association step, general) amounted to 0%. The “EphB4 Inhibition Percent, Inhibition of Association ONLY” value in experiment [2] (setting [7]) was 0.6% and 0% and 8.2%.
For `COc1ccc2[nH]cc(C(=O)N3CCN(c4ccccc4OC)CC3)c2c1` [Compound 64, (5-methoxy-1H-indol-3-yl)(4-(2-methoxyphenyl)piperazin-1-yl)methanone], the inhibition at 3.2 µM in experiment [1] (setting [3]), in experiment [1] (setting [4]), in experiment [2] (setting [5]) and in experiment [2] (setting [6]) was 0% throughout.
Take `COc1ccccc1N1CCN(Cc2cc(Br)c(O)c3ncccc23)CC1` [Compound 70, 7-bromo-5-((4-(2-methoxyphenyl)piperazin-1-yl)methyl)quinolin-8-ol]: the inhibition at 3.2 µM in experiment [1] (setting [3]) is 58.8%; in experiment [1] (setting [4]), 47.2%; in experiment [2] (setting [5]) it was 36.3%; in experiment [2] (setting [6]), 15.1%.
The matching figures for `O=C(Cc1ccccc1)Nc1ccc(N2CCN(Cc3ccc(O)c4ncccc34)CC2)cc1` [Compound 51, N-(4-(4-((8-hydroxyquinolin-5-yl)methyl)piperazin-1-yl)phenyl)-2-phenylacetamide]: 61.2%, 52.7%, 37.2% and 18.1%.
Turning to `Oc1c(Br)cc(CN2CCN(Cc3ccc(Br)cc3)CC2)c2cccnc12` [Compound 44, 7-bromo-5-((4-(4-bromobenzyl)piperazin-1-yl)methyl)quinolin-8-ol], the inhibition at 3.2 µM in experiment [1] (setting [3]) was determined as 49.9%; in experiment [1] (setting [4]) it was 37.3%; in experiment [2] (setting [5]), 28.3%; in experiment [2] (setting [6]), 4.9%.
Consider `Oc1ccc(CN2CCN(Cc3ccc(Br)cc3)CC2)c2cccnc12` [Compound 42, 5-((4-(4-bromobenzyl)piperazin-1-yl)methyl)quinolin-8-ol], for which the inhibition at 3.2 µM in experiment [1] (setting [3]) was determined as 36.5%; in experiment [1] (setting [4]), 19.9%; in experiment [2] (setting [5]), 0%; in experiment [2] (setting [6]), 0%. In experiment [2] (3.2 μM), the “selectivity among EphrinB2-EphB1/B2/B4” value was “ability to selectively inhibit EphrinB2-EphB2 and EphrinB2-EphB1 interactions, while sparing the EphrinB2-EphB4 interaction”.
Consider `O=[N+]([O-])c1cc(CN2CCS(=O)(=O)CC2)c2cccnc2c1O` [Compound 20, 4-((8-hydroxy-7-nitroquinolin-5-yl)methyl)thiomorpholine 1,1-dioxide], for which the inhibition at 3.2 µM in experiment [1] (setting [3]) is 36%; in experiment [1] (setting [4]), 24%; in experiment [2] (setting [5]), 0%; in experiment [2] (setting [6]), 0%. In experiment [1], the “inhibition of EphB1-EphrinB2 binding” value amounted to 25%. The “selectivity among EphrinB2-EphB1/B2/B4” value in experiment [2] (3.2 μM, listed as QTM-NO2) is “ability to selectively inhibit EphrinB2-EphB2 and EphrinB2-EphB1 interactions, while sparing the EphrinB2-EphB4 interaction; also recorded: less action towards EphB4 but high specificity for EphB1 and EphB2”.
Regarding `Oc1c(Cl)cc(CN2CCOCC2)c2cccnc12` [Compound 4, 4-((7-chloro-8-hydroxyquinolin-1-ium-5-yl)methyl)morpholin-4-ium chloride], in experiment [1], the “EphB1 Inhibition Percent, Inhibition of Association ONLY” value turned out to be 34.2% and the “EphB1 Inhibition Percent, Inhibition of Association-Dissociation” value stood at 48.4%. Further, the “EphB4 Inhibition Percent, Inhibition of Association ONLY” value in experiment [2] (setting [7]) amounted to 16.8%. Further, in experiment [2] (at 3.2 μM and 580 seconds, immobilized human EphrinB2, 25 nM soluble human EphB4), the “EphB4 Inhibition Percent, Inhibition of Association-Dissociation” value turned out to be 35.5%.
`Oc1ccc(CN2CCN(Cc3ccc(C(F)(F)F)cc3)CC2)c2cccnc12` [Compound 48, 5-((4-(4-(trifluoromethyl)benzyl)piperazin-1-yl)methyl)quinolin-8-ol]: the inhibition at 3.2 µM is 19.8% in experiment [1] (setting [3]), 2.6% in experiment [1] (setting [4]), 0% in experiment [2] (setting [5]) and 0% in experiment [2] (setting [6]).
On to `Oc1ccc(CN2CCN(c3ccc(Br)cn3)CC2)c2cccnc12` [Compound 33, 5-((4-(5-bromopyridin-2-yl)piperazin-1-yl)methyl)quinolin-8-ol], for which the inhibition at 3.2 µM in experiment [1] (setting [3]) was 58.6%; in experiment [1] (setting [4]), 46.4%; in experiment [2] (setting [5]) it was 36.9%; in experiment [2] (setting [6]), 20.9%.

Source of the values: patent publication US20260374739A1, “SMALL MOLECULAR WEIGHT CHEMICAL COMPOUND TO ANTAGONIZE EPH-EPHRIN TETRAMERIZATION AND INHIBIT BIDIRECTIONAL SIGNALING” (THE BOARD OF REGENTS OF THE UNIVERSITY OF TEXAS SYSTEM, priority 2022, published 2026).
